Like-named read-outs stand apart in the source and are kept apart here.
Key:
[1] = target: T1, FZD7 CRD-Fc (Homo sapiens, UniProt O75084); experiment: spot phage ELISA against FZD7 CRD-Fc; assay type: binding; details: for SIGNAL: NOISE RATIO FZD7 CRD: spot phage ELISA signal against FZD7 CRD over ELISA signal against BSA, Tables 3 and 4; for FZD7 CRD-Fc phage-binding signal: signal minus noise (BSA); for FZD7 CRD-Fc phage-binding signal / FZD7 CRD-Fc S/N: shotgun scanning variants of Fz7-21, Table 5; for FZD7 CRD-Fc S/N: signal to noise ratio
T1 construct: hFZD7 CRD-Fc (cat no. 6178-FZ); purchased R&D systems 6178-FZ
Experimental: (§1) Phage pools of linear peptide libraries (Stanger, K. et al. Allosteric peptides bind a caspase zymogen and mediate caspase tetramerization. Nat Chem Biol 8, 655-660 (2012)) were cycled through rounds of binding selections with hFZD7 CRD-Fc following standard protocols (Tonikian et al. (2007) Nat Protoc 2, 1368-1386). Herceptin (10 μM) was included in sorting solution to block potential Fc binders during all rounds of sorting. After four rounds of binding selection, individual phage clones were analyzed in a high-throughput spot phage ELISA using plate-immobilized FZD7 CRD-Fc as target or off-target for specificity test (hFZD8 CRD-Fc and Herceptin). To measure off-target affinity, duplicate phage particle were assayed against BSA to measure non-specific binding. Clones with a phage-binding signal >0.5 and signal-to-noise ratio >10 were considered to be positive clones and were subjected to DNA sequence analysis. General data handling was done using Microsoft Excel 2010 unless otherwise noted.
(§2) In order to investigate the role of FZD7 in intestinal stem cell function, experiments were performed to identify ligands that selectively bind FZD7 CRD. A naïve linear peptide library (4-16 amino acids in length) and a cyclic peptide library were screened via phage display against FZD7 CRD-Fc. Peptides found to bind FZD7 CRD-Fc were then screened via spot phage ELISA against FZD7 CRD-Fc, FZD8 CRD-Fc, and Herceptin to identify candidates that bind FZD7 CRD but not FZD8 CRD or herceptin. The amino acid sequences of candidate FZD7 CRD-binding linear peptides are shown in Table 3 below, and the amino acid sequences of candidate FZD7 CRD-binding cyclic peptides are shown in Table 4.
(§3) Briefly, sixty Fz7-21-derived peptides (see Table 5), each containing at least one random alanine and/or valine/and/or aspartic acid and/or serine substitution, were generated and screened via spot phage ELISA (i.e., as described above) against FZD7 CRD-Fc and Herceptin.

[2] = system: Herceptin; experiment: spot phage ELISA against Herceptin (off-target); assay type: binding; details: for SIGNAL: NOISE RATIO HERCEPTIN: spot phage ELISA signal against Herceptin over ELISA signal against BSA, Tables 3 and 4; for HERCEPTIN S/W: signal minus noise (BSA); for HERCEPTIN S/W / HERCEPTIN S/N: Table 5; for HERCEPTIN S/N: signal to noise ratio
Experimental: as §1, §2, §3

[3] = target: T2, FZD8 CRD-Fc (Homo sapiens, UniProt Q9H461); experiment: spot phage ELISA against FZD8 CRD-Fc (off-target); assay type: binding; details: spot phage ELISA signal against FZD 8 CRD over ELISA signal against BSA; Tables 3 and 4
T2 construct: hFZD8 CRD-Fc (cat no. 6129-FZ); purchased R&D systems 6129-FZ
T2 sequence (Q9H461 30-151 limits assumed): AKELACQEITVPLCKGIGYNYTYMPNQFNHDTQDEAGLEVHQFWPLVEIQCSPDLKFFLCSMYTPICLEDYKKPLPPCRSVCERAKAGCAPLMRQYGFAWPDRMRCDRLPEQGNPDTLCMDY
Experimental: as §1, §2

[4] = system: Wnt3a-mediated β-catenin signaling in HEK293-TB cells; assay type: cell-based; details: for HEK293S-TB % Remaining Activity: measured at 100 μM peptide
[5] = system: Wnt3a-mediated stabilization of β-catenin in mouse L cells; experiment: in-cell western of β-catenin protein in L cells treated with Wnt3a; assay type: cell-based
Experimental: DMSO controls were performed in parallel. Following treatment, the L-cells were fixed, permeabilized, probed with fluorescently labeled anti-β-catenin antibodies, and observed via in-cell western assay (i.e., as described in Hannoush, R. N. (2008) PLoS One 3, e3498) to assess β-catenin protein levels. The values in Table 7 are averages of at least 3 independent replicates, ±standard deviation.

[6] = system: Rnf43^−/− and Znf3^−/− intestinal neoplasia in mice; details: Koo et al. (2015); cited from earlier work
[7] = β-catenin by immunofluorescence, Wnt3a 2.5 nM, 5 hours, mean ± standard deviation
[8] = […], mWnt3a 50 ng/mL, 6 hours, mean ± standard deviation, read-out: HEK293S-TB IC50

5 (PCSVICLPDWSSLLFI) [compound 5]
SIGNAL: NOISE RATIO FZD7 CRD [1]: 22.7 | SIGNAL: NOISE RATIO HERCEPTIN [2]: 1.0 | SIGNAL: NOISE RATIO FZD8 CRD [3]: 1.5

15 (FWMQLQDGFAIWFP) [compound 15]
SIGNAL: NOISE RATIO HERCEPTIN [2]: 1.7 | SIGNAL: NOISE RATIO FZD8 CRD [3]: 2.9

16 (PCSVICLPDWSSLLFI) [compound 16]
SIGNAL: NOISE RATIO FZD7 CRD [1]: 5.0 | SIGNAL: NOISE RATIO HERCEPTIN [2]: 1.1 | SIGNAL: NOISE RATIO FZD8 CRD [3]: 1.1

LPSDNLEFWCHVMY [Fz7-21N]
HEK293S-TB % Remaining Activity ([4]; mean ± standard deviation): 5.51 ± 0.13% | IC50 ([4]; read-out: IC50, Wnt3a-stimulated β-catenin signaling): 0.1 µM | L CELLS % Remaining Activity ([5]; measured at 11.11 μM of peptide): 59.77^G ± 6.12% | Wnt3a-mediated stabilization of β-catenin ([5]; mouse L cells): blocked | IC50 [5, 7]: 0.18 ± 0.12 µM

YEHLHDLMDLIRPW [Fz7-07]
SIGNAL: NOISE RATIO HERCEPTIN [2]: 1.2 | IC50 [4, 8]: > 100 µM | HEK293S-TB % Remaining Activity ([4]; mean ± standard deviation): 46.04 ± 6.94% | L CELLS % Remaining Activity ([5]; measured at 100 μM peptide): 67.20 ± 10.22% | IC50 [5, 7]: > 100 µM

IWFKGRFVEFSSLV [Fz7-17]
SIGNAL: NOISE RATIO HERCEPTIN [2]: 1.1 | IC50 [4, 8]: 34.77 ± 0.34 µM | HEK293S-TB % Remaining Activity ([4]; mean ± standard deviation): 4.59 ± 1.30% | L CELLS % Remaining Activity ([5]; measured at 100 μM peptide): 38.20 ± 0.06% | IC50 [5, 7]: ~35 µM

40 (AASDDLEFWCHVMY) [compound 40]
FZD7 CRD-Fc phage-binding signal [1]: 3.2 | FZD7 CRD-Fc S/N [1]: 60.5 | HERCEPTIN S/W [2]: 0.0 | HERCEPTIN S/N [2]: 1.4

ISLIEAMIALDRVF [Fz7-06]
SIGNAL: NOISE RATIO HERCEPTIN [2]: 1.1 | IC50 [4, 8]: 10.5 ± 0.56 µM | HEK293S-TB % Remaining Activity ([4]; mean ± standard deviation): 4.70 ± 2.07% | L CELLS % Remaining Activity ([5]; measured at 100 μM peptide): 174.95% | L CELLS IC50 (μM) [5, 7]: n. i.

FDFCSVMPQFIYCPGD [Fz7-20]
SIGNAL: NOISE RATIO HERCEPTIN [2]: 1.14 | IC50 [4, 8]: 20.8 ± 1.61 µM | HEK293S-TB % Remaining Activity ([4]; mean ± standard deviation): 9.78 ± 0.53% | L CELLS % Remaining Activity ([5]; measured at 100 μM peptide): 23.68 ± 4.40% | IC50 [5, 7]: 15.2 ± 10.8 µM

Cc1cc(-c2ccc(CC(=O)Nc3ccc(-c4cccnc4)cc3)cc2)ccn1 [C59]
adverse effects on adjacent intestinal crypts [6]: no significant adverse effects | growth of intestinal neoplasia [6]: prevents the growth

41 (AASDDLEFWCHVMY) [compound 41]
FZD7 CRD-Fc phage-binding signal [1]: 3.0 | FZD7 CRD-Fc S/N [1]: 59.6 | HERCEPTIN S/W [2]: 0.0 | HERCEPTIN S/N [2]: 1.3

94 (LPADDLEFWCHVMY) [compound 94]
FZD7 CRD-Fc phage-binding signal [1]: 0.1 | FZD7 CRD-Fc S/N [1]: 2.8 | HERCEPTIN S/W [2]: 0.0 | HERCEPTIN S/N [2]: 1.2

SDDLEFWCHVMY [dFz7-21-Δ2]
effect of N-terminal truncation on dFz7-21 activity ([4]; lacking the 2 N-terminal residues): did not interfere | IC50 compared with dFz7-21 ([4]; text to Table 17): comparable to that of dFz7-21

Source: patent US20190359653A1, “SELECTIVE PEPTIDE INHIBITORS OF FRIZZLED” (Genentech, Inc., priority 2016, published 2019)
